This test has as its target T1, human recombinant ROCK1 kinase domain (amino acid 2-543) (Homo sapiens, UniProt Q13464).
T1 construct: human recombinant ROCK1 kinase domain (amino acid 2-543); His-tag; made in house; host or cells: Sf9 insect cells
The test is described as follows: ROCK Kinase Assay (SPA, P33 incorporation into peptide substrate). The note with it: 1 nM hROCK1, 1 uM ATP; eleven point dilution range, 50 uM to 0.8 nM or 10 uM to 0.8 nM (Example 98: 10 uM to 0.8 nM). The format is biochemical. How it is done:
ROCK inhibitor activity was determined using human recombinant ROCK1 kinase domain (amino acid 2-543) expressed in Sf9 cells (see WO9967283). The enzyme was purified using His-tag NTA column and Source15 HPLC chromatography. The assay of Rock-1 activity involved incubation with peptide substrate and ATP^33, the subsequent incorporation of P^33 into the peptide was quantified by Scintillation Proximity Assay (SPA—Amersham Pharmacia).
For IC50 determination, test compounds were typically dissolved at 10 mM in 100% DMSO, with subsequent serial dilution in 100% DMSO. Compounds were typically assayed over an eleven point dilution range with a concentration in the assay of 50 uM to 0.8 nM, in 3-fold dilutions. IC50 values were calculated by bespoke curve fitting software and then converted to pIC50. In some cases, compounds were assayed over an eleven point dilution range with a concentration in the assay of 10 uM to 0.8 nM, in 3-fold dilutions. […]
Assays were performed in opaque, white walled, 384 well plates, in a total assay volume of 20 ul. […] P^33 incorporation was quantified by scintillation counting in a Packard TopCount. When the reaction was terminated by addition of a 10 ul solution, P33 incorporation was quantified by luminescence detection using a Perkin-Elmer Viewlux ultraHTS microplate imager.

T1 sequence (Q13464 2-543): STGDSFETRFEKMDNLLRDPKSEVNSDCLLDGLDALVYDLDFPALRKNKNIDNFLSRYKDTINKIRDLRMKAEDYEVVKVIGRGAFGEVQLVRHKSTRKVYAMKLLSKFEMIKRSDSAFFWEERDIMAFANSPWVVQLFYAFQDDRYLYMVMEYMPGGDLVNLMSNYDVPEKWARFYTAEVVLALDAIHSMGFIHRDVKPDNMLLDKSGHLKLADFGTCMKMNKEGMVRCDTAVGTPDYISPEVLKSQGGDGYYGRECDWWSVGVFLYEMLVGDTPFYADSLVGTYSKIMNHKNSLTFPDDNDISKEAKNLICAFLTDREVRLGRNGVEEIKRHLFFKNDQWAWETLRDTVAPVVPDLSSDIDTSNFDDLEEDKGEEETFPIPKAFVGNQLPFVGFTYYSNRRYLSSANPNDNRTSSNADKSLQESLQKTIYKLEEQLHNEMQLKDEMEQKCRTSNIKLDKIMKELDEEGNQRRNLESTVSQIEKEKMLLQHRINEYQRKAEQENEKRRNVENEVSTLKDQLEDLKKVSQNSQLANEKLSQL

With `CC1=C(C(=O)Nc2cc3cn[nH]c3cc2F)C(c2ccc(Cl)cc2F)N=C(c2ccnc(Cl)c2)N1C` (stereo not shown) [Example 98, 4-(4-chloro-2-fluorophenyl)-2-(2-chloro-4-pyridinyl)-N-(6-fluoro-1H-indazol-5-yl)-1,6-dimethyl-1,4-dihydro-5-pyrimidinecarboxamide], the “activity in the ROCK kinase assay” value is reported as “not active”.

These data come from US20080125427A1, “Novel Inhibitors of Rho-Kinases” (SMITHKLINE BEECHAM CORPORATION, priority 2004, published 2008).
